We go through 11 molecules from PMC8217340 (Phytotherapy research : PTR, 2021).

Like-named read-outs stand apart in the source and are kept apart here.

In series [1] the target is T1, human OATP1B3 (Homo sapiens, UniProt Q9NPD5).
T1 sequence (Q9NPD5 1-702): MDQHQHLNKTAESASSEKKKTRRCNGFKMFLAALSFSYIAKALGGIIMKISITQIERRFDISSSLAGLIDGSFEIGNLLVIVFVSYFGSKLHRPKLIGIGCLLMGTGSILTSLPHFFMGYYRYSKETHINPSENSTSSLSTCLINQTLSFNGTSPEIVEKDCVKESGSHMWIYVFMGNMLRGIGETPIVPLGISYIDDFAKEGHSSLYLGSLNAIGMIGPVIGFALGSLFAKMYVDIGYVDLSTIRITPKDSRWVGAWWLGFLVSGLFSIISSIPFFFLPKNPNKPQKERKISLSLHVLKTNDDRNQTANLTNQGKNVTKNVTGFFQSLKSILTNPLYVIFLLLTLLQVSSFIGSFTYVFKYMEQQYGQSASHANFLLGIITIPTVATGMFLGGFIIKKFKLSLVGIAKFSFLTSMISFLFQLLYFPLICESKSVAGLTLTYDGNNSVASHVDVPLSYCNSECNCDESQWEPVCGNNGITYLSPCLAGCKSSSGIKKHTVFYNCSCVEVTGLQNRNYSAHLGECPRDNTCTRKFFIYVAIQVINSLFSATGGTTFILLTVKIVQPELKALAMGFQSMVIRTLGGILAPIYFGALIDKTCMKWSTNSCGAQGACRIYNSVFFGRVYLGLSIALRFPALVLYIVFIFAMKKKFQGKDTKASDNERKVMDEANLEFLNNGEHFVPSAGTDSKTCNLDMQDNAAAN
The class given is cell-based.

For series [2] the following is noted: in vivo; cited from earlier work.
Series [3] deals with T2, human OATP1B1 (Homo sapiens, UniProt Q9Y6L6).
T2 sequence (Q9Y6L6 1-691): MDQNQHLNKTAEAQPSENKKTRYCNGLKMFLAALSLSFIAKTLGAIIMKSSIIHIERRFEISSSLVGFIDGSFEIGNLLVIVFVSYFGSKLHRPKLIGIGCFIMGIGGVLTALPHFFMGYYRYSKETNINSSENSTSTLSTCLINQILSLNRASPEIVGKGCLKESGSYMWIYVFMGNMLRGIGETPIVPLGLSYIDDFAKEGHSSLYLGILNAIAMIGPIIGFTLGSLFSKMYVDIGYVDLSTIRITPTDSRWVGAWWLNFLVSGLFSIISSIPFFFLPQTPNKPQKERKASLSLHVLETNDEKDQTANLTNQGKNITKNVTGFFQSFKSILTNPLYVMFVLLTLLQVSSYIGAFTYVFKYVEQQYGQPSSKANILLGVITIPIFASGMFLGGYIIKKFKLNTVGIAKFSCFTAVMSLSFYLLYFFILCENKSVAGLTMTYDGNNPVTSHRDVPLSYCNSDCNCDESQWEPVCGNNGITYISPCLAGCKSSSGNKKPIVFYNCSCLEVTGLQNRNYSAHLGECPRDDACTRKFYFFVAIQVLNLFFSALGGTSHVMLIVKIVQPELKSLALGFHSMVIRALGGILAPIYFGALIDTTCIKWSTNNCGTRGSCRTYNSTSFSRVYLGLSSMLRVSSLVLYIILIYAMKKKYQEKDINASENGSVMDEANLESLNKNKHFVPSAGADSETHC
The class given is cell-based.

The conditions of series [4]: human, in vivo; cited from earlier work.
The conditions of series [5]: for Cmax: NASH animals, silymarin 500 mg/kg oral gavage, plasma, geometric mean (90% CI).
In series [6] the target is T1, human OATP1B3. The class given is cell-based. The note with it: 5 μM flavonolignan, 5 minutes; uptake minus wild-type CHO cells.
Another series has as its target T3, human OATP2B1 (Homo sapiens, UniProt O94956).
T3 sequence (O94956 1-709): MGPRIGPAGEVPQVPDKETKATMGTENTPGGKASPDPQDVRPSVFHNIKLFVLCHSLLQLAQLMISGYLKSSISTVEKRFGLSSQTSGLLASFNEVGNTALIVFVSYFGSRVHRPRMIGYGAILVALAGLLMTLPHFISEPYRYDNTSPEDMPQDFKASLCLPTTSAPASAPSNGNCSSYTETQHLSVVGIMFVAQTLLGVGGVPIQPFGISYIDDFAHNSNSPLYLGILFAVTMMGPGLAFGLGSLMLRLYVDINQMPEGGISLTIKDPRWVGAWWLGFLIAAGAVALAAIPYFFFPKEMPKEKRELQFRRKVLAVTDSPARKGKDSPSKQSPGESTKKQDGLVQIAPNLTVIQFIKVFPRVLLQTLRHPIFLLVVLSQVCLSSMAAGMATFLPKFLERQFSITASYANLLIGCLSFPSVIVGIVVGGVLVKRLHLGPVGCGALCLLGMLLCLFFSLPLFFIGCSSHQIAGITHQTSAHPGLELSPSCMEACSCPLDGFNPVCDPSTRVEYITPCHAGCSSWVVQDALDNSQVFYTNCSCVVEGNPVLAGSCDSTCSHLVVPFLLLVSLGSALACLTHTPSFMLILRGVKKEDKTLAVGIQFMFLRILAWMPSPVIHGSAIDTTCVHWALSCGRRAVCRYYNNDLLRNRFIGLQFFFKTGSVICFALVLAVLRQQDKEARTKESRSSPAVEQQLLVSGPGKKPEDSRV
The class given is cell-based. Conditions: 5 μM flavonolignan, 5 minutes; for substrate for OATP2B1: uptake minus wild-type CHO cells.

Series [7] has as its target T2, human OATP1B1. The class given is cell-based. The note with it: 5 μM flavonolignan, 5 minutes; uptake minus wild-type CHO cells.
Series [8] is classed as in vivo, Sprague Dawley rats. The note with it: 27 hours after pitavastatin gavage.
The format of series [9] is in vivo, Sprague Dawley rats.
For series [10] the following is noted: read-out: average Cmax; NAFLD and HCV patients; ref Fried, 2012; Wah Kheong et al., 2017; cited from earlier work.
The subject of a further series is UGT2B7. The note with it: ref Uchaipichat, 2018; cited from earlier work.

Broadly, the Cmax is the highest concentration seen after dosing.

For silymarin, the “leftward shift in IC50 for OATP1B3” value at human OATP1B3 [1] was 1.7 fold. For the same molecule, the “safety of the dose” value in [2] is on record as “safe”. The “leftward shift in IC50 for OATP1B1” value at human OATP1B1 [3] is 2.8 fold. Further, the adverse events result in [4] was “no adverse events”.

In turn, silybin A-7-O-β-D-glucuronide [S7G] returned a Cmax in [5] of 12.6 µM.

For `COc1cc([C@@H]2Oc3cc([C@H]4Oc5cc(O)cc(O)c5C(=O)[C@@H]4O)ccc3O[C@H]2CO)ccc1O` [SB, silybin B], the “substrate for OATP1B3” value on human OATP1B3 [6] is given as “substrates”. At human OATP2B1, the “substrate for OATP2B1” value is listed as “substrates”. Also, the “substrate for OATP1B1” value at human OATP1B1 [7] was “substrates”.

As for `COc1cc([C@@H]2[C@H]3CO[C@@]4(O)C(=O)[C@@H]2C=C([C@H]2Oc5cc(O)cc(O)c5C(=O)[C@@H]2O)[C@@H]34)ccc1O` [SD, silydianin], the “substrate for OATP1B3” value at human OATP1B3 [6] is given as “substrates”. Further, the “substrate for OATP2B1” value at human OATP2B1 is “substrates”. For the same molecule, the “substrate for OATP1B1” value on human OATP1B1 [7] is on record as “substrates”.

Take `COc1cc([C@@H]2Oc3ccc([C@H]4Oc5cc(O)cc(O)c5C(=O)[C@@H]4O)cc3O[C@H]2CO)ccc1O` [IB, isosilybin B]: on human OATP1B3 [6], the “substrate for OATP1B3” value is given as “substrates”. Also, the “substrate for OATP2B1” value on human OATP2B1 is on record as “substrates”. Besides, on human OATP1B1 [7], the “substrate for OATP1B1” value is “substrates”.

With `COc1cc([C@@H]2Oc3c(O)cc([C@H]4Oc5cc(O)cc(O)c5C(=O)[C@@H]4O)cc3[C@H]2CO)ccc1O` [SC, silychristin], at human OATP1B3 [6], the “substrate for OATP1B3” value is listed as “substrates”. Also, on human OATP2B1, the “transport activity of OATP2B1 compared to SA” value was “lower transport activity” and the “substrate for OATP2B1” value is listed as “substrates”. For the same molecule, the “substrate for OATP1B1” value on human OATP1B1 [7] is listed as “substrates”.

Consider `O=C(O)C[C@H](O)C[C@H](O)/C=C/c1c(C2CC2)nc2ccccc2c1-c1ccc(F)cc1` [Pitavastatin, Pitavastatin calcium], for which, in [8], the “liver pitavastatin content, NASH vs control groups” value is “not different”. The “liver to plasma ratio in the NASH group” value in [8] is “decreased”. In series [9] (40-minute offset between pitavastatin and silymarin administration), the “silymarin effect on pitavastatin Cmax” value is “no significant silymarin effect”. Besides, the “increase of pitavastatin AUC0-27h by silymarin” value in series [9] (NASH silymarin group vs NASH vehicle) and in series [9] (control silymarin group vs control vehicle) was 1.8 fold in each case. For the same molecule, the “increase of pitavastatin AUC0-27h by NASH alone” value in [9] (NASH vehicle compared to control vehicle) is reported as 2.9 fold. In addition, the “increase of pitavastatin AUC0-27h by the combination of silymarin and NASH” value in series [9] (compared to the control vehicle group) was found to be 5.1 fold. Also, the “increase of pitavastatin Cmax by NASH compared to control” value in series [9] (in the absence of silymarin) is given as 3.9 fold; in series [9] (in the presence of silymarin), 2.8 fold.

Regarding `COc1cc([C@H]2Oc3cc([C@H]4Oc5cc(O)cc(O)c5C(=O)[C@@H]4O)ccc3O[C@@H]2CO)ccc1O` [SA, silybin A], at human OATP1B3 [6], the “substrate for OATP1B3” value is recorded as “substrates”. Besides, in series [10], the Cmax is 0.8 to 4.2 µM. Besides, at human OATP2B1, the “substrate for OATP2B1” value was “substrates”. Moreover, the “plasma AUC of SA relative to that of SC” value in series [5] (oral silymarin 500 mg/kg) was determined as 110 times. Moreover, the “substrate for OATP1B1” value on human OATP1B1 [7] was “substrates”.

With `COc1cc([C@H]2Oc3ccc([C@H]4Oc5cc(O)cc(O)c5C(=O)[C@@H]4O)cc3O[C@@H]2CO)ccc1O` [IA, isosilybin A], the “substrate for OATP1B3” value at human OATP1B3 [6] was “substrates”. On human OATP2B1, the “substrate for OATP2B1” value was “substrates”. The “substrate for OATP1B1” value at human OATP1B1 [7] is listed as “substrates”.

In [5], silybin A-4”-O-β-D-glucuronide [S4G] returned a Cmax of 12.6 µM.

With `COc1cc(C2Oc3cc([C@H]4Oc5cc(O)cc(O)c5C(=O)[C@@H]4O)ccc3OC2CO)ccc1O` (stereo partly shown) [silybin], the “concentrations at which inhibition of UGT2B7 occurs” value in the series on UGT2B7 is 0.60 to 1.5 mM.
